Data from PubChem BioAssay AID330 (DTP/NCI, 2004).
“And” between values parts separate entries of the source, which are not always exact repeats. Equal values may be shown once. Inconclusive results and toxic doses are left out.

System: P388 leukemia ip, CD2F1 mice, survival T/C
Test: NCI In Vivo Anticancer Drug Screen. Data for tumor model P388 Leukemia (intraperitoneal) in CD2F1 (CDF1) mice
Conditions: endpoint: median survival time, higher = longer survival
How it was run: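 Mice carrying the transplanted tumor received test compound or vehicle. Survival was recorded in each group, and the value is the treated-group measurement divided by that of the vehicle-treated control group.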

[1] = dose: 100.0 mg/kg/injection, schedule: Q01DX009 (ip), vehicle: saline with Tween-80
[2] = dose: 200.0 mg/kg/injection, schedule: Q01DX009 (ip), vehicle: saline with Tween-80
[3] = dose: 400.0 mg/kg/injection, schedule: Q01DX009 (ip), vehicle: saline with Tween-80
[4] = dose: 50.0 mg/kg/injection, schedule: Q01DX009 (ip), vehicle: saline with Tween-80

`CC1=C(C(=O)N2Cc3cc4ccccc4nc3C2)COC1=O` was tested, and the T/C (dose: 50.0 mg/kg/injection, schedule: Q01DX001 (ip), vehicle: saline with Tween-80) was 99 % of control, the T/C (dose: 100.0 mg/kg/injection, schedule: Q01DX001 (ip), vehicle: saline with Tween-80) was 90 % of control and the T/C (dose: 200.0 mg/kg/injection, schedule: Q01DX001 (ip), vehicle: saline with Tween-80) was 95 % of control. For the same compound, the T/C (dose: 400.0 mg/kg/injection, schedule: Q01DX001 (ip), vehicle: saline with Tween-80) was 90 % of control.
With `C(=N\c1oc(-c2ccccc2)c(-c2ccccc2)c1-c1ccccc1)/c1ccccc1` the T/C (dose: 50.0 mg/kg/injection, schedule: Q01DX005 (ip), vehicle: saline with Tween-80) was 88 % of control, the T/C (dose: 100.0 mg/kg/injection, schedule: Q01DX005 (ip), vehicle: saline with Tween-80) was 88 % of control and the T/C (dose: 200.0 mg/kg/injection, schedule: Q01DX005 (ip), vehicle: saline with Tween-80) was 95 % of control.
For `CNC(=O)CC(=O)NC`, the T/C (dose: 100.0 mg/kg/injection, schedule: Q04DX003 (ip), vehicle: suspension in saline) was 93 % of control, the T/C (dose: 200.0 mg/kg/injection, schedule: Q04DX003 (ip), vehicle: suspension in saline) was 100 % of control and the T/C (dose: 400.0 mg/kg/injection, schedule: Q04DX003 (ip), vehicle: suspension in saline) was 95 % of control.
For `Cc1[nH]c2ccc(N(C)C)cc2c(=O)c1CN1CCCCC1`, the T/C (dose: 50.0 mg/kg/injection, schedule: Q01DX009 (ip), vehicle: Klucel (hydroxypropylcellulose) (HPC)) was 106 % of control, the T/C (dose: 100.0 mg/kg/injection, schedule: Q01DX009 (ip), vehicle: Klucel (hydroxypropylcellulose) (HPC)) was 100 % of control and the T/C (dose: 200.0 mg/kg/injection, schedule: Q01DX009 (ip), vehicle: Klucel (hydroxypropylcellulose) (HPC)) was 108 % of control.
With `Cc1ccc(C(=O)c2ccccc2C(=O)O)cc1N` the T/C [1] was 100 % of control, the T/C (dose: 100.0 mg/kg/injection, schedule: Q04DX003 (ip), vehicle: saline with Tween-80) was 100 % of control and the T/C [2] was 100 % of control. The T/C (dose: 200.0 mg/kg/injection, schedule: Q04DX003 (ip), vehicle: saline with Tween-80) was 100 % of control, the T/C [3] was 100 % of control and the T/C (dose: 400.0 mg/kg/injection, schedule: Q04DX003 (ip), vehicle: saline with Tween-80) was 108 % of control.
`O=C1C=CC(=O)N1CC[P+](c1ccccc1)(c1ccccc1)c1ccccc1` was tested, and the T/C (dose: 0.78 mg/kg/injection, schedule: Q01DX009 (ip), vehicle: water) was 118 % of control, the T/C (dose: 1.56 mg/kg/injection, schedule: Q01DX009 (ip), vehicle: water) was 102 % of control and the T/C (dose: 3.13 mg/kg/injection, schedule: Q01DX009 (ip), vehicle: water) was 106 % of control. For the same compound, the T/C (dose: 6.25 mg/kg/injection, schedule: Q01DX009 (ip), vehicle: water) was 105 % of control, the T/C (dose: 12.5 mg/kg/injection, schedule: Q01DX009 (ip), vehicle: water) was 112 % of control and the T/C (dose: 25.0 mg/kg/injection, schedule: Q01DX009 (ip), vehicle: water) was 112 % of control and 120 % of control.
In the case of `O=c1c2ccccc2c(-c2ccc(N(CCCl)CCCl)cc2)cn1CCCl`, the T/C (dose: 25.0 mg/kg/injection, schedule: Q04DX003 (ip), vehicle: Klucel (hydroxypropylcellulose) (HPC)) is reported as 100 % of control, the T/C (dose: 50.0 mg/kg/injection, schedule: Q04DX003 (ip), vehicle: Klucel (hydroxypropylcellulose) (HPC)) is reported as 114 % of control and the T/C (dose: 100.0 mg/kg/injection, schedule: Q04DX003 (ip), vehicle: Klucel (hydroxypropylcellulose) (HPC)) is reported as 107 % of control. The T/C (dose: 200.0 mg/kg/injection, schedule: Q04DX003 (ip), vehicle: Klucel (hydroxypropylcellulose) (HPC)) was 115 % of control and the T/C (dose: 400.0 mg/kg/injection, schedule: Q04DX003 (ip), vehicle: Klucel (hydroxypropylcellulose) (HPC)) was 100 % of control.
For `CS(=O)(=O)[O][Sn]([CH3])([CH3])[O]S(C)(=O)=O`, the T/C (dose: 6.25 mg/kg/injection, schedule: Q04DX003 (ip), vehicle: saline) was 104 % of control, the T/C (dose: 12.5 mg/kg/injection, schedule: Q04DX003 (ip), vehicle: saline) was 109 % of control and the T/C (dose: 25.0 mg/kg/injection, schedule: Q04DX003 (ip), vehicle: saline) was 110 % of control.
In the case of `CC(=O)O[B-]1(OC(C)=O)Oc2c3ccccc3c3c4c(ccc(c24)=[O+]1)O[B-](OC(C)=O)(OC(C)=O)[O+]=3`, the T/C (dose: 50.0 mg/kg/injection, schedule: Q01DX005 (ip), vehicle: Klucel + Tween-80) is reported as 94 % of control, the T/C (dose: 100.0 mg/kg/injection, schedule: Q01DX005 (ip), vehicle: Klucel + Tween-80) is reported as 89 % of control and the T/C (dose: 200.0 mg/kg/injection, schedule: Q01DX005 (ip), vehicle: Klucel + Tween-80) is reported as 93 % of control.
In the case of `CCCCN1CSC(=S)N(Cc2ccccc2)C1`, the T/C (dose: 50.0 mg/kg/injection, schedule: Q01DX009 (ip), vehicle: other) is reported as 115 % of control, the T/C (dose: 100.0 mg/kg/injection, schedule: Q01DX009 (ip), vehicle: other) is reported as 108 % of control and the T/C (dose: 200.0 mg/kg/injection, schedule: Q01DX009 (ip), vehicle: other) is reported as 92 % of control.
`O=C(O)C1CSC(c2ccncc2)N1` (configuration not stated) was tested, and the T/C (dose: 50.0 mg/kg/injection, schedule: Q01DX009 (ip), vehicle: saline) was 96 % of control and 97 % of control, the T/C (dose: 100.0 mg/kg/injection, schedule: Q01DX009 (ip), vehicle: saline) was 96 % of control and the T/C (dose: 200.0 mg/kg/injection, schedule: Q01DX009 (ip), vehicle: saline) was 94 % of control.
In the case of `CC(C)(C)C(=O)NC(OC(NC(=O)C(C)(C)C)C(=O)C(C)(C)C)C(=O)C(C)(C)C` (configuration not stated), the T/C (dose: 60.0 mg/kg/injection, schedule: Q01DX005 (ip), vehicle: saline with Tween-80) is reported as 97 % of control, the T/C (dose: 120.0 mg/kg/injection, schedule: Q01DX005 (ip), vehicle: saline with Tween-80) is reported as 99 % of control and the T/C (dose: 240.0 mg/kg/injection, schedule: Q01DX005 (ip), vehicle: saline with Tween-80) is reported as 105 % of control.
In the case of `CCOC1=NC(C)C(C)N1` (configuration not stated), the T/C (dose: 25.0 mg/kg/injection, schedule: Q01DX001 (ip), vehicle: saline) is reported as 101 % of control, the T/C (dose: 50.0 mg/kg/injection, schedule: Q01DX001 (ip), vehicle: saline) is reported as 101 % of control and the T/C (dose: 100.0 mg/kg/injection, schedule: Q01DX001 (ip), vehicle: saline) is reported as 108 % of control and 97 % of control.
For `c1ccc2c(c1)[As]=c1ccccc1=[As]2` (configuration not stated), the T/C (dose: 0.79 mg/kg/injection, schedule: Q01DX009 (ip), vehicle: saline) was 107 % of control, the T/C (dose: 1.56 mg/kg/injection, schedule: Q01DX009 (ip), vehicle: saline) was 105 % of control and 118 % of control and the T/C (dose: 3.12 mg/kg/injection, schedule: Q01DX009 (ip), vehicle: saline) was 122 % of control. The T/C (dose: 6.25 mg/kg/injection, schedule: Q01DX009 (ip), vehicle: saline) was 173 % of control.
For `ClCC(Br)CBr` (configuration not stated) (tested in a mixture with another compound), the T/C (dose: 12.5 mg/kg/injection, schedule: Q01DX009 (ip), vehicle: saline) was 96 % of control and the T/C (dose: 25.0 mg/kg/injection, schedule: Q01DX009 (ip), vehicle: saline) was 96 % of control.
For `c1ccc2c(c1)Nc1ncccc1S2`, the T/C [4] was 99 % of control and 94 % of control, the T/C [1] was 92 % of control and 95 % of control and the T/C [2] was 107 % of control and 92 % of control. The T/C [3] was 108 % of control.
For `O=S1(=O)O[C@H]2CCCC[C@H]2O1`, the T/C (dose: 1.75 mg/kg/injection, schedule: Q01DX009 (ip), vehicle: Klucel (hydroxypropylcellulose) (HPC)) was 100 % of control, the T/C (dose: 3.5 mg/kg/injection, schedule: Q01DX009 (ip), vehicle: Klucel (hydroxypropylcellulose) (HPC)) was 98 % of control and the T/C (dose: 7.0 mg/kg/injection, schedule: Q01DX009 (ip), vehicle: Klucel (hydroxypropylcellulose) (HPC)) was 101 % of control. For the same compound, the T/C (dose: 14.0 mg/kg/injection, schedule: Q01DX009 (ip), vehicle: Klucel (hydroxypropylcellulose) (HPC)) was 98 % of control.
`O=C(O)C1Cc2c([nH]c3ccccc23)C(CO)N1` (configuration not stated) was tested, and the T/C (dose: 25.0 mg/kg/injection, schedule: Q01DX009 (ip), vehicle: suspension in saline) was 107 % of control and the T/C (dose: 50.0 mg/kg/injection, schedule: Q01DX009 (ip), vehicle: suspension in saline) was 104 % of control.
In the case of `CC(=O)/C(=C\c1ccc([N+](=O)[O-])o1)C(=O)CCN(C)C`, the T/C (dose: 7.5 mg/kg/injection, schedule: Q01DX005 (ip), vehicle: Klucel (hydroxypropylcellulose) (HPC)) is reported as 97 % of control and the T/C (dose: 15.0 mg/kg/injection, schedule: Q01DX005 (ip), vehicle: Klucel (hydroxypropylcellulose) (HPC)) is reported as 107 % of control.
In the case of `Cc1cc(O)c(CCC(C)CCCC(C)C)c(O)c1` (configuration not stated), the T/C (dose: 50.0 mg/kg/injection, schedule: Q01DX005 (ip), vehicle: Klucel (hydroxypropylcellulose) (HPC)) is reported as 100 % of control, the T/C (dose: 100.0 mg/kg/injection, schedule: Q01DX005 (ip), vehicle: Klucel (hydroxypropylcellulose) (HPC)) is reported as 100 % of control and the T/C (dose: 200.0 mg/kg/injection, schedule: Q01DX005 (ip), vehicle: Klucel (hydroxypropylcellulose) (HPC)) is reported as 110 % of control.
For `CCOC(=O)c1ccc(NN=NC)cc1`, the T/C (dose: 12.5 mg/kg/injection, schedule: Q01DX009 (ip), vehicle: saline with Tween-80) was 108 % of control and 113 % of control, the T/C [4] was 154 % of control and 173 % of control and the T/C [1] was 108 % of control and 91 % of control.
